Measurements from ChEMBL document CHEMBL5223172, “Development of fluorophore labeled or biotinylated anticancer small molecule NSC243928” (Bioorg Med Chem, 2023).
The source made the active and inactive calls. No cut-off for these calls is given here.

Key:
[1] = tested on: Hs-578T; test: Antiproliferative activity against human Hs-578T cells transfected with LY6K-shRNA assessed as reduction in cell viability at 5 to 10 uM measured after 48 hrs by Cell titer blue assay; assay type: functional, cell-based; conditions: dose 5-10 µM
[2] = molecular target: T1, Lymphocyte antigen 6K (Homo sapiens) (UniProt Q17RY6); test: Binding affinity to human wild type LY6K at 1.25 to 5 uM measured upto 250 sec by SPR assay; conditions: dose 1.25-5 µM
T1 sequence (whole entry): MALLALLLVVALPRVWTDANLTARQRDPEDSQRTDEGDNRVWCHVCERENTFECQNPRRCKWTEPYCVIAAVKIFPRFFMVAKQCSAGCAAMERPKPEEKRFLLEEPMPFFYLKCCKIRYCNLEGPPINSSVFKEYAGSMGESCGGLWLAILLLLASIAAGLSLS

[3] = Drug uptake in human Serum starved Hs-578T cells assessed as drug localization in cytoplasm of cell at 2 uM measured after 2 hrs by DAPI staining based confocal microscopy; assay type: ADME
[4] = Drug uptake in human Serum starved Hs-578T cells assessed as drug localization in membrane of the cell at 2 uM measured after 2 hrs by DAPI staining based confocal microscopy; assay type: ADME
[5] = molecular target: T1, Lymphocyte antigen 6K (Homo sapiens); test: Inhibition of LY6K in human Hs-578T cells assessed as reduction in cell viability measured after 48 hrs by Cell titer blue assay; assay type: cell-based; conditions: dose 5-10 µM
[6] = Drug uptake in human Serum starved Hs-578T cells assessed as drug localization in perinuclear region of cell at 2 uM measured after 2 hrs by DAPI staining based confocal microscopy; assay type: ADME
[7] = molecular target: T2, Lymphocyte antigen 6K (Homo sapiens, UniProt Q17RY6); test: Binding affinity to human wild type LY6K assessed as dissociation constant measured upto 250 sec by SPR assay
T2 sequence (Q17RY6 whole entry): T1 sequence (whole entry)

Structure (SMILES) | Activity [2] | Drug uptake [3] | Drug uptake [4] | Drug uptake [6] | Kd [7] | Activity [1] | Activity [5]
CCS(=O)(=O)Nc1ccc(Nc2c3ccccc3nc3cc(C(=O)NCCCCCCNc4ccc([N+](=O)[O-])c5nonc45)ccc23)c(OC)c1 | Active | Active | Active | Active | – | inactive | Dose-Dependent Effect
CCS(=O)(=O)Nc1ccc(Nc2c3ccccc3nc3cc(C(=O)NCCOCCOCCOCCOCCOCCOCCOCCNC(=O)CCCC[C@@H]4SC[C@@H]5NC(=O)N[C@@H]54)ccc23)c(OC)c1 | – | – | – | – | 300 nM | inactive | Dose-Dependent Effect

Further lines, with some results ahead:

Activity [2] | Drug uptake [3] | Drug uptake [4] | Drug uptake [6] | Kd [7] | Structure (SMILES) | Activity [1] | Activity [5]
Dose-Dependent Effect | – | – | – | – | CCS(=O)(=O)Nc1ccc(Nc2c3ccccc3nc3cc([N+](=O)[O-])ccc23)c(OC)c1 | – | –
Dose-Dependent Effect | – | – | – | 4700 nM | CCS(=O)(=O)Nc1ccc(Nc2c3ccccc3nc3ccccc23)c(OC)c1 | inactive | Dose-Dependent Effect
Active | – | – | – | – | CCS(=O)(=O)Nc1ccc(Nc2c3ccccc3nc3cc(NC(=O)CCCC[C@@H]4SC[C@@H]5NC(=O)N[C@@H]54)ccc23)c(OC)c1 | – | –
Active | – | – | – | – | CCS(=O)(=O)Nc1ccc(Nc2c3ccccc3nc3cc(C(=O)OCc4ccccc4)ccc23)c(OC)c1 | – | –
